Assay: Eclipse PK and dosimetry sub-study, 27 patients, cycle 1 biodistribution and dosimetry (SPECT/CT, OLINDA 2.2.3)
Assay type: in vivo, human
Conditions: for Absorbed Dose Mean (SD): ECLIPSE, after Cycle 1; for Absorbed Dose in Cycle 1, Mean / Absorbed Dose in Cycle 1, min: N = 16
Source text: Data Acquisition: All participating sites underwent a rigorous site setup process during which all dose calibrators, scanners, and gamma counters used in the sub-study were calibrated. Sites were allowed to enroll patients in the sub-study only after the completion and approval of all site setup processes by Invicro.
Patients underwent SPECT/CT imaging, with anatomical coverage typically extending from the salivary glands to the pelvis, following the administration of a targeted 7.4±10% GBq of ^177Lu-PSMA-I&T at cycle 1. SPECT/CT imaging was performed at four timepoints: 4 h, 24 h, 48 h, and 168 h post-injection. Additionally, a subset of patients imaged at Cycle 1 (16 out of 27), were also imaged at Cycle 3 (Table 7 in Appendix 1).
Image acquisition and reconstruction protocols were standardized across all imaging timepoints and patients at each site. Furthermore, each site consistently utilized the same SPECT/CT scanner throughout the duration of the study to ensure uniformity.
In general, raw projection data was acquired into a 128×128 matrix with medium energy general purpose (MEGP) collimation using a step and shoot acquisition mode, acquiring 60 projections per detector (180 degrees rotation per detector), 20 seconds per projection, with an acquisition zoom of 1.0, and a 20% (±10%) energy window centered over 208 keV.
A low-dose CT scan was performed prior to beginning the SPECT scan for attenuation correction. Sites were instructed to use the Institutional standard parameters for acquisition of the low-dose CT. Institutional standard reconstruction parameters were used. Scatter correction was required to be applied using a 20% (±10%) scatter window centered over 170 keV.
The imaging data was analysed using Invicro's VivoQuant software, a validated software used in a 21 CFR § 11-compliant workflow. The general quantification approach was based on the principles detailed in the Medical Internal Radiation Dose (MIRD) Pamphlet No. 16,^1 No 23,2 and No 26,3 as appropriate.
SPECT images were calibrated in units of Becquerel (Bq) using a calibration factor derived from a source of known activity, measured during site set up with the same acquisition and reconstruction parameters employed for patient imaging. A patient-specific calibration factor was also derived at each clinical time point after acquisition of the patient SPECT/CT. As a quality control measure, if the patient-specific calibration factor differed by more than 10% from the site set up calibration factor, an investigation was conducted.
Volume of interest (VOI) (kidneys, bladder, liver, lumbar vertebrae L2-L4, lacrimal glands, salivary glands [parotid and submandibular glands], and whole body) were delineated on each dataset by a trained image analyst. […] Organs were segmented either by drawing the entire contour of the organ, or by placing a sphere in a representative region of the organ and then multiplying by the organ's effective mass (based on patient's height and weight).^4 Segmentation methods for each organ are specified in Table 1 and were consistently applied to each patient.
Clearance of the radiopharmaceutical was derived from a data-appropriate fit of each organ's TAC. Depending on the TAC's shape, the data was fitted with the sum of one, two, or three exponentials, or using a rise and fall model. Fitting was performed with in-house Python software. TIACs were calculated through analytical integration of the curve fit extrapolated to infinity. […] A whole-body TAC was derived from delineating the imaged body. The remainder activity was determined by subtracting the cumulative organ TIACs from the whole body TIAC.
Organ TIACs were input into OLINDA 2.2.3 for the computation of organ and whole-body absorbed doses, using International Commission on Radiological Protection (ICRP)-103 weighing factors. The ICRP-89 derived male phantom was used for dose estimation. […]

[1] = Cycle 1, n = 26, patient 12-004 excluded
[2] = Lacrimal Glands (OLINDA sphere model)

O=C([O-])CC[C@H](NC(=O)N[C@@H](CCCCNC(=O)CCCCCCC(=O)NCCCC[C@@H](NC(=O)[C@@H](Cc1ccccc1)NC(=O)[C@@H](Cc1ccc(O)c(I)c1)NC(=O)CC[C@H](C(=O)[O-])N1CCN(CC(=O)[O-])CCN(CC(=O)[O-])CCN(CC(=O)[O-])CC1)C(=O)[O-])C(=O)[O-])C(=O)[O-].[177Lu+3].[H+].[H+].[H+].[H+].[H+] [^177Lu-PSMA I&T, (3S,7S,26R,29R,32R,37R)-29-benzyl-32-(4-hydroxy-3-iodobenzyl)-5,13,20,28,31,34-hexaoxo-37-(4,7,10-tris(carboxymethyl)-1,4,7,10-tetraazacyclododecan-1-yl)-4,6,12,21,27,30,33-heptaazaheptatriacontane-1,3,7,26,37-pentacarboxylic acid; lutetium-177 (III)]
Absorbed Dose Mean (SD) (Bladder): 0.41 (0.05) Gy/GBq
Absorbed Dose Mean (SD) (Bone Marrow): 0.08 (0.12) Gy/GBq
Absorbed Dose, Adrenals, Mean (Cycle 1, n = 26): 0.02 Gy/GBq
Absorbed Dose, Adrenals, max (Cycle 1, n = 26): 0.08 Gy/GBq
Absorbed Dose, Adrenals, median (Cycle 1, n = 26): 0.02 Gy/GBq
Absorbed Dose, Adrenals, min (Cycle 1, n = 26): 0.01 Gy/GBq
Absorbed Dose, Brain, Mean (Cycle 1, n = 26): 0.01 Gy/GBq
Absorbed Dose, Brain, max (Cycle 1, n = 26): 0.07 Gy/GBq
Absorbed Dose, Brain, median (Cycle 1, n = 26): 0.01 Gy/GBq
Absorbed Dose, Brain, min (Cycle 1, n = 26): 0.00 Gy/GBq
Absorbed Dose, Esophagus, Mean (Cycle 1, n = 26): 0.02 Gy/GBq
Absorbed Dose, Esophagus, max (Cycle 1, n = 26): 0.07 Gy/GBq
Absorbed Dose, Esophagus, median (Cycle 1, n = 26): 0.01 Gy/GBq
Absorbed Dose, Esophagus, min (Cycle 1, n = 26): 0.00 Gy/GBq
Absorbed Dose, Eyes, Mean (Cycle 1, n = 26): 0.01 Gy/GBq
Absorbed Dose, Eyes, max (Cycle 1, n = 26): 0.07 Gy/GBq
Absorbed Dose, Eyes, median (Cycle 1, n = 26): 0.01 Gy/GBq
Absorbed Dose, Eyes, min (Cycle 1, n = 26): 0.00 Gy/GBq
Absorbed Dose, Gallbladder wall, Mean (Cycle 1, n = 26): 0.02 Gy/GBq
Absorbed Dose, Gallbladder wall, max (Cycle 1, n = 26): 0.07 Gy/GBq
Absorbed Dose, Gallbladder wall, median (Cycle 1, n = 26): 0.01 Gy/GBq
Absorbed Dose, Gallbladder wall, min (Cycle 1, n = 26): 0.00 Gy/GBq
Absorbed Dose, Heart wall, Mean (Cycle 1, n = 26): 0.02 Gy/GBq
Absorbed Dose, Heart wall, max (Cycle 1, n = 26): 0.07 Gy/GBq
Absorbed Dose, Heart wall, median (Cycle 1, n = 26): 0.01 Gy/GBq
Absorbed Dose, Heart wall, min (Cycle 1, n = 26): 0.00 Gy/GBq
Absorbed Dose, Kidneys, Mean (Cycle 1, n = 26): 0.41 Gy/GBq
Absorbed Dose, Kidneys, max (Cycle 1, n = 26): 0.81 Gy/GBq
Absorbed Dose, Kidneys, median (Cycle 1, n = 26): 0.37 Gy/GBq
Absorbed Dose, Kidneys, min (Cycle 1, n = 26): 0.17 Gy/GBq
Absorbed Dose, Lacrimal Glands, Mean (Cycle 1, n = 26): 0.40 Gy/GBq
Absorbed Dose, Lacrimal Glands, max (Cycle 1, n = 26): 1.19 Gy/GBq
Absorbed Dose, Lacrimal Glands, median (Cycle 1, n = 26): 0.26 Gy/GBq
Absorbed Dose, Lacrimal Glands, min (Cycle 1, n = 26): 0.04 Gy/GBq
Absorbed Dose, Left colon, Mean (Cycle 1, n = 26): 0.47 Gy/GBq
Absorbed Dose, Left colon, max (Cycle 1, n = 26): 1.53 Gy/GBq
Absorbed Dose, Left colon, median (Cycle 1, n = 26): 0.41 Gy/GBq
Absorbed Dose, Left colon, min (Cycle 1, n = 26): 0.01 Gy/GBq
Absorbed Dose, Liver, Mean (Cycle 1, n = 26): 0.04 Gy/GBq
Absorbed Dose, Liver, max (Cycle 1, n = 26): 0.10 Gy/GBq
Absorbed Dose, Liver, median (Cycle 1, n = 26): 0.03 Gy/GBq
Absorbed Dose, Liver, min (Cycle 1, n = 26): 0.01 Gy/GBq
Absorbed Dose, Lungs, Mean (Cycle 1, n = 26): 0.01 Gy/GBq
Absorbed Dose, Lungs, max (Cycle 1, n = 26): 0.07 Gy/GBq
Absorbed Dose, Lungs, median (Cycle 1, n = 26): 0.01 Gy/GBq
Absorbed Dose, Lungs, min (Cycle 1, n = 26): 0.00 Gy/GBq
Absorbed Dose, Osteogenic cells, Mean (Cycle 1, n = 26): 0.05 Gy/GBq
Absorbed Dose, Osteogenic cells, max (Cycle 1, n = 26): 0.29 Gy/GBq
Absorbed Dose, Osteogenic cells, median (Cycle 1, n = 26): 0.02 Gy/GBq
Absorbed Dose, Osteogenic cells, min (Cycle 1, n = 26): 0.00 Gy/GBq
Absorbed Dose, Pancreas, Mean (Cycle 1, n = 26): 0.02 Gy/GBq
Absorbed Dose, Pancreas, max (Cycle 1, n = 26): 0.07 Gy/GBq
Absorbed Dose, Pancreas, median (Cycle 1, n = 26): 0.01 Gy/GBq
Absorbed Dose, Pancreas, min (Cycle 1, n = 26): 0.00 Gy/GBq
Absorbed Dose, Prostate, Mean (Cycle 1, n = 26): 0.02 Gy/GBq
Absorbed Dose, Prostate, max (Cycle 1, n = 26): 0.07 Gy/GBq
Absorbed Dose, Prostate, median (Cycle 1, n = 26): 0.01 Gy/GBq
Absorbed Dose, Prostate, min (Cycle 1, n = 26): 0.01 Gy/GBq
Absorbed Dose, Rectum, Mean (Cycle 1, n = 26): 0.44 Gy/GBq
Absorbed Dose, Rectum, max (Cycle 1, n = 26): 1.46 Gy/GBq
Absorbed Dose, Rectum, median (Cycle 1, n = 26): 0.39 Gy/GBq
Absorbed Dose, Rectum, min (Cycle 1, n = 26): 0.01 Gy/GBq
Absorbed Dose, Red Marrow, Mean (Cycle 1, n = 26): 0.08 Gy/GBq
Absorbed Dose, Red Marrow, max (Cycle 1, n = 26): 0.49 Gy/GBq
Absorbed Dose, Red Marrow, median (Cycle 1, n = 26): 0.03 Gy/GBq
Absorbed Dose, Red Marrow, min (Cycle 1, n = 26): 0.00 Gy/GBq
Absorbed Dose, Right Colon, max (Cycle 1, n = 26): 0.82 Gy/GBq
Absorbed Dose, Right Colon, median (Cycle 1, n = 26): 0.22 Gy/GBq
Absorbed Dose, Right Colon, min (Cycle 1, n = 26): 0.01 Gy/GBq
Absorbed Dose, Right colon, Mean (Cycle 1, n = 26): 0.25 Gy/GBq
Absorbed Dose, Small intestine, Mean (Cycle 1, n = 26): 0.05 Gy/GBq
Absorbed Dose, Small intestine, max (Cycle 1, n = 26): 0.15 Gy/GBq
Absorbed Dose, Small intestine, median (Cycle 1, n = 26): 0.04 Gy/GBq
Absorbed Dose, Small intestine, min (Cycle 1, n = 26): 0.01 Gy/GBq
Absorbed Dose, Spleen, Mean (Cycle 1, n = 26): 0.03 Gy/GBq
Absorbed Dose, Spleen, max (Cycle 1, n = 26): 0.11 Gy/GBq
Absorbed Dose, Spleen, median (Cycle 1, n = 26): 0.02 Gy/GBq
Absorbed Dose, Spleen, min (Cycle 1, n = 26): 0.01 Gy/GBq
Absorbed Dose, Stomach Wall, Mean (Cycle 1, n = 26): 0.02 Gy/GBq
Absorbed Dose, Stomach Wall, max (Cycle 1, n = 26): 0.07 Gy/GBq
Absorbed Dose, Stomach Wall, median (Cycle 1, n = 26): 0.01 Gy/GBq
Absorbed Dose, Stomach Wall, min (Cycle 1, n = 26): 0.00 Gy/GBq
Absorbed Dose, Testes, Mean (Cycle 1, n = 26): 0.01 Gy/GBq
Absorbed Dose, Testes, max (Cycle 1, n = 26): 0.07 Gy/GBq
Absorbed Dose, Testes, median (Cycle 1, n = 26): 0.01 Gy/GBq
Absorbed Dose, Testes, min (Cycle 1, n = 26): 10.00 Gy/GBq
Absorbed Dose, Thymus, Mean (Cycle 1, n = 26): 0.01 Gy/GBq
Absorbed Dose, Thymus, max (Cycle 1, n = 26): 0.07 Gy/GBq
Absorbed Dose, Thymus, median (Cycle 1, n = 26): 0.01 Gy/GBq
Absorbed Dose, Thymus, min (Cycle 1, n = 26): 0.00 Gy/GBq
Absorbed Dose, Thyroid, Mean (Cycle 1, n = 26): 0.01 Gy/GBq
Absorbed Dose, Thyroid, max (Cycle 1, n = 26): 0.07 Gy/GBq
Absorbed Dose, Thyroid, median (Cycle 1, n = 26): 0.01 Gy/GBq
Absorbed Dose, Thyroid, min (Cycle 1, n = 26): 0.00 Gy/GBq
Absorbed Dose, Total Body, Mean (Cycle 1, n = 26): 0.02 Gy/GBq
Absorbed Dose, Total Body, max (Cycle 1, n = 26): 0.09 Gy/GBq
Absorbed Dose, Total Body, median (Cycle 1, n = 26): 0.02 Gy/GBq
Absorbed Dose, Total Body, min (Cycle 1, n = 26): 0.01 Gy/GBq
Absorbed Dose, Urinary Bladder wall, Mean (Cycle 1, n = 26): 0.41 Gy/GBq
Absorbed Dose, Urinary Bladder wall, max (Cycle 1, n = 26): 0.50 Gy/GBq
Absorbed Dose, Urinary Bladder wall, median (Cycle 1, n = 26): 0.41 Gy/GBq
Absorbed Dose, Urinary Bladder wall, min (Cycle 1, n = 26): 0.33 Gy/GBq
absorbed dose, kidneys (Cycle 1, n = 26): 0.41±0.15 Gy/GBq
absorbed dose, left colon (Cycle 1, n = 26): 0.47±0.31 Gy/GBq
absorbed dose, rectum (Cycle 1, n = 26): 0.44±0.30 Gy/GBq
absorbed dose, urinary bladder (Cycle 1, n = 26): 0.41±0.05 Gy/GBq
Absorbed Dose, Salivary Glands, Mean [1]: 0.19 Gy/GBq
Absorbed Dose, Salivary Glands, max [1]: 0.80 Gy/GBq
Absorbed Dose, Salivary Glands, median [1]: 0.15 Gy/GBq
Absorbed Dose, Salivary Glands, min [1]: 0.03 Gy/GBq
Absorbed Dose Mean (SD) (Heart): 0.02 (0.02) Gy/GBq
Absorbed Dose Mean (SD) (Kidneys): 0.41 (0.15) Gy/GBq
Absorbed Dose in Cycle 1, Mean [2]: 0.39 Gy/GBq
Absorbed Dose in Cycle 1, min [2]: 0.04 Gy/GBq
Absorbed Dose Mean (SD) (Lacrimal Glands): 0.40 (0.36) Gy/GBq
Absorbed Dose Mean (SD) (Left Colon): 0.47 (0.31) Gy/GBq
Absorbed Dose Mean (SD) (Liver): 0.04 (0.02) Gy/GBq
Absorbed Dose in Cycle 1, min (Liver): 0.0 Gy/GBq
Absorbed Dose Mean (SD) (Right Colon): 0.25 (0.17) Gy/GBq
Absorbed Dose Mean (SD) (Salivary Glands): 0.19 (0.16) Gy/GBq
Absorbed Dose Mean (SD) (Spleen): 0.03 (0.02) Gy/GBq
Absorbed Dose in Cycle 1, Mean (Testes): 0.0 Gy/GBq
Absorbed Dose Mean (SD) (Thyroid): 0.01 (0.02) Gy/GBq
Absorbed Dose in Cycle 1, Mean (Urinary Bladder wall): 0.40 Gy/GBq
absorbed dose, lacrimal glands (cycle 1): 0.40±0.36 Gy/GBq
mean absorbed dose, bone marrow (red marrow) (cycle 1, image-based (L2-L4)): 0.08±0.12 Gy/GBq
absorbed dose, salivary glands (cycle 1, patient 12-004 excluded): 0.19±0.16 Gy/GBq
